From patent US8394769B2, “Anti-hypertensive agent” (MG Pharma Inc., priority 2007, dated 2013)

Tested on: Spontaneously hypertensive rats (SHR/Izm)
Assay: Systolic blood pressure in spontaneously hypertensive rats after single dose of synthesized peptides (2) to (6) (tail-cuff method)
Format: in vivo, rat
Settings: single dose 50 mg/kg body weight, *p < 0.05, **p < 0.01
From the text: The following peptides were synthesized according to known methods, based on the amino acid sequences of peptides isolated from the globin proteolysate prepared in Experimental Example 3 and identified. The peptide (WGKV; SEQ ID NO:3) (3) corresponds to a peptide produced by one amino acid deletion at the C terminus from the amino acid sequence of the peptide (WGKVN; SEQ ID NO:2) (2), and the peptide (WGK; SEQ ID NO:4) (4) corresponds to a peptide produced by deleting a further amino acid at the C terminus.
Spontaneously hypertensive rats (SHR/Izm, male, 12-week-old, body weight: 285 g, Japan SLC, Inc.) were administered in a single dose with the peptides synthesized above (peptides (2) to (6)) in an amount of 50 mg/kg body weight. Two, four, and six hours after the start of administration, the systolic blood pressures of the rats were measured using a non-heating non-invasive blood pressure monitor (“MK-2000”, manufactured by Muromachi Kikai Co., Ltd.) by the tail-cuff method without using anesthesia. Spontaneously hypertensive rats as a control group were orally administered with a solvent (distilled water), and the systolic blood pressures of the rats were measured in a similar manner.

Row | Substance | Reduction in blood pressure, 2 hours after administration | Reduction in blood pressure, 4 hours after administration | Reduction in blood pressure, 6 hours after administration
1 | Trp-Gly-Lys-Val-Asn (WGKVN; Peptide found in globin hydrolysate) | −16 ± 4** mmHg | −12 ± 4* mmHg | −14 ± 3** mmHg
2 | Trp-Gly-Lys-Val (WGKV; Peptide found in globin hydrolysate) | −9 ± 3 mmHg | −4 ± 4 mmHg | −3 ± 3 mmHg
3 | Phe-Glu-Ser (FES; Peptide found in globin hydrolysate) | −15 ± 4* mmHg | −13 ± 8 mmHg | −15 ± 6 mmHg
4 | Trp-Gly-Lys (WGK; Peptide found in globin hydrolysate) | −3 ± 7 mmHg | −23 ± 8** mmHg | −15 ± 8 mmHg
5 | Ala-Ala-Trp-Gly-Lys (AAWGK; Peptide found in globin hydrolysate) | −7 ± 4 mmHg | −8 ± 12 mmHg | −4 ± 8 mmHg
